According to patent US12077768B2, “Plants having increased tolerance to herbicides” (BASF AGRO B.V., priority 2013, dated 2024):

Tested on: mutated PPO sequences (e.g. SEQ ID NOs: 1, 30, 31, 11, 37, and 117) as wildtype or with respective mutations, expressed in leaf discs
Assay: Herbicide tolerance of transiently transformed tobacco leaf discs expressing wildtype or mutated PPO: tolerance factors from IC50 of PSII yield inhibition versus empty vector
Assay type: cell-based, Nicotiana benthamiana

C#CCN1C(=O)C(F)(F)Oc2cc(F)c(-n3c(=O)n(C)c(=S)n(C)c3=O)cc21 [1,5-dimethyl-6-thioxo-3-(2,2,7-trifluoro-3-oxo-4-(prop-2-ynyl)-3,4-dihydro-2H-benzo[b][1,4]oxazin-6-yl)-1,3,5-triazinane-2,4-dione]
Tolerance factor (IC50 of PSII yield inhibition, transformed versus empty vector-transformed leaf discs): 28.7
